Here are results for ten compounds from article PMC7301889 (Journal of computer-aided molecular design, 2019).

The nature of the data set: Potentiometric. It counts as physicochemical. Conditions: 1-octanol/water biphasic system, log P (mean ± SEM), octanol / ISA water, neutral species, 25.0 ± 0.5 °C, 150 mM KCl, mean ± SEM of at least three independent replicates.
Regarding `Nc1ccc2c(c1)ncn2-c1ccccc1` [SM14, c1ccc(cc1)n2cnc3c2ccc(c3)N], the logP (usually a log measure of how a compound divides between an organic and an aqueous phase) amounted to 1.95 ± 0.03.
Consider `O=C(Nc1ccncc1)c1c(Cl)cccc1Cl` [SM16, c1cc(c(c(c1)Cl)C(=O)Nc2ccncc2)Cl], for which the logP turned out to be 2.62 ± 0.01.
For the compound `COc1cccc(Nc2ncnc3ccccc23)c1` [SM09, COc1cccc(c1)Nc2c3ccccc3ncn2.Cl], the logP stood at 3.03 ± 0.07.
The compound `Clc1ccc(CNc2ncnc3ccccc23)cc1` [SM04, c1ccc2c(c1)c(ncn2)NCc3ccc(cc3)Cl] yielded a logP of 3.98 ± 0.03.
`FC(F)(F)c1cccc(Nc2ncnc3ccccc23)c1` [SM02, c1ccc2c(c1)c(ncn2)Nc3cccc(c3)C(F)(F)F]: the logP is 4.09 ± 0.03.
Regarding `COc1cc2ncnc(Nc3cccc(C)c3)c2cc1OC` [SM13, Cc1cccc(c1)Nc2c3cc(c(cc3ncn2)OC)OC], the logP was 2.92 ± 0.04.
On to `Oc1ccc(-n2cnc3ccccc32)cc1` [SM15, c1ccc2c(c1)ncn2c3ccc(cc3)O], for which the logP was found to be 3.07 ± 0.03.
`Clc1cccc(Nc2ncnc3ccccc23)c1` [SM12, c1ccc2c(c1)c(ncn2)Nc3cccc(c3)Cl.Cl] showed a logP of 3.83 ± 0.03.
For the compound `Nc1ncnc2c1cnn2-c1ccccc1` [SM11, c1ccc(cc1)n2c3c(cn2)c(ncn3)N], the logP is 2.1 ± 0.04.
`Cc1ccc2[nH]c(=O)c(CC(=O)O)c(-c3ccccc3)c2c1` [SM08, Cc1ccc2c(c1)c(c(c(=O)[nH]2)CC(=O)O)c3ccccc3]: the logP was determined as 3.1 ± 0.03.
